From the supplement of paper PMC10307832

What was measured:
Assay in all cases: relative viability (nuclei count vs DMSO), 5 days (fraction); higher = more cells survive
LC-2-ad = test system: LC-2-ad
Summary of the method: (§1)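 Lung cancer cell lines were seeded in 1536-well plates and dosed by pin tool the next day, with either a single drug or a fixed anchor-drug dose combined with five library-drug doses (not always all listed) spaced in √10 steps. Five days later, one step fixed the cells and stained their nuclei (final 0.05% Triton X-100, 1% formaldehyde, 1 ug/ml Hoechst), and nuclei were counted on 4× images. Relative viability is the nuclei count in treated wells divided by the count in vehicle wells, and each value is the median of duplicate plates.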

NCI-H2228 = test system: NCI-H2228
Summary of the method: as §1

NCI-H650 = test system: NCI-H650
Summary of the method: as §1

SK-MES-1 = test system: SK-MES-1
Summary of the method: as §1

UMC-11 = test system: UMC-11
Summary of the method: as §1

NCI-H2347 = test system: NCI-H2347
Summary of the method: as §1

NCI-H1355 = test system: NCI-H1355
Summary of the method: as §1

NCI-H1993 = test system: NCI-H1993
Summary of the method: as §1

NCI-H1734 = test system: NCI-H1734
Summary of the method: as §1

NCI-H1975 = test system: NCI-H1975
Summary of the method: as §1

A-427 = test system: A-427
Summary of the method: as §1

NCI-H1755 = test system: NCI-H1755
Summary of the method: as §1

NCI-H23 = test system: NCI-H23
Summary of the method: as §1

LCLC-103H = test system: LCLC-103H
Summary of the method: as §1

RERF-LC-KJ = test system: RERF-LC-KJ
Summary of the method: as §1

NCI-H1915 = test system: NCI-H1915
Summary of the method: as §1

NCI-H2170 = test system: NCI-H2170
Summary of the method: as §1

SW 1573 = test system: SW 1573
Summary of the method: as §1

HCC-366 = test system: HCC-366
Summary of the method: as §1

NCI-H1792 = test system: NCI-H1792
Summary of the method: as §1

SK-LU-1 = test system: SK-LU-1
Summary of the method: as §1

HCC-827 = test system: HCC-827
Summary of the method: as §1

In the case of `Cc1cn(-c2cc(NC(=O)c3ccc(C)c(Nc4nccc(-c5cccnc5)n4)c3)cc(C(F)(F)F)c2)cn1` [Nilotinib] + CS(=O)(=O)N1CCN(Cc2cc3nc(-c4cccc5[nH]ncc45)nc(N4CCOCC4)c3s2)CC1 [Pictilisib] (partner 1 µM), the relative viability (LC-2-ad; first compound 0.001 µM) is reported as 0.385, the relative viability (LC-2-ad; first compound 0.003162 µM) is reported as 0.518 and the relative viability (LC-2-ad; first compound 0.01 µM) is reported as 0.547. The relative viability (LC-2-ad; first compound 0.03162 µM) was 0.379, the relative viability (LC-2-ad; first compound 0.1 µM) was 0.117 and the relative viability (NCI-H2228; first compound 0.001 µM) was 0.27. It also gave a relative viability (NCI-H2228; first compound 0.003162 µM) of 0.402, a relative viability (NCI-H2228; first compound 0.01 µM) of 0.31 and a relative viability (NCI-H2228; first compound 0.03162 µM) of 0.356. The relative viability (NCI-H2228; first compound 0.1 µM) was 0.397, the relative viability (NCI-H650; first compound 0.001 µM) was 0.817 and the relative viability (NCI-H650; first compound 0.003162 µM) was 0.775. For the same molecule, the relative viability (NCI-H650; first compound 0.01 µM) was 0.841, the relative viability (NCI-H650; first compound 0.03162 µM) was 0.853 and the relative viability (NCI-H650; first compound 0.1 µM) was 0.767. It also gave a relative viability (SK-MES-1; first compound 0.001 µM) of 0.433, a relative viability (SK-MES-1; first compound 0.003162 µM) of 0.447 and a relative viability (SK-MES-1; first compound 0.01 µM) of 0.424. For the same molecule, the relative viability (SK-MES-1; first compound 0.03162 µM) was 0.396, the relative viability (SK-MES-1; first compound 0.1 µM) was 0.465 and the relative viability (UMC-11; first compound 0.001 µM) was 0.801. It also gave a relative viability (UMC-11; first compound 0.003162 µM) of 1.03, a relative viability (UMC-11; first compound 0.01 µM) of 0.972 and a relative viability (UMC-11; first compound 0.1 µM) of 0.287. It also gave a relative viability (NCI-H2347; first compound 0.001 µM) of 0.644, a relative viability (NCI-H2347; first compound 0.003162 µM) of 0.679 and a relative viability (NCI-H2347; first compound 0.01 µM) of 0.717. It also gave a relative viability (NCI-H2347; first compound 0.03162 µM) of 0.635, a relative viability (NCI-H2347; first compound 0.1 µM) of 0.401 and a relative viability (NCI-H1355; first compound 0.001 µM) of 0.399. For the same molecule, the relative viability (NCI-H1355; first compound 0.003162 µM) was 0.468, the relative viability (NCI-H1355; first compound 0.01 µM) was 0.371 and the relative viability (NCI-H1355; first compound 0.03162 µM) was 0.421. The relative viability (NCI-H1355; first compound 0.1 µM) was 0.19, the relative viability (NCI-H1993; first compound 0.001 µM) was 0.984 and the relative viability (NCI-H1993; first compound 0.003162 µM) was 0.682. It also gave a relative viability (NCI-H1993; first compound 0.01 µM) of 0.789, a relative viability (NCI-H1993; first compound 0.03162 µM) of 0.917 and a relative viability (NCI-H1993; first compound 0.1 µM) of 0.673. For the same molecule, the relative viability (NCI-H1734; first compound 0.001 µM) was 0.445, the relative viability (NCI-H1734; first compound 0.003162 µM) was 0.48 and the relative viability (NCI-H1734; first compound 0.01 µM) was 0.447. It also gave a relative viability (NCI-H1734; first compound 0.03162 µM) of 0.384, a relative viability (NCI-H1734; first compound 0.1 µM) of 0.236 and a relative viability (NCI-H1975; first compound 0.001 µM) of 0.299. For the same molecule, the relative viability (NCI-H1975; first compound 0.003162 µM) was 0.358, the relative viability (NCI-H1975; first compound 0.01 µM) was 0.231 and the relative viability (NCI-H1975; first compound 0.03162 µM) was 0.312. For the same molecule, the relative viability (NCI-H1975; first compound 0.1 µM) was 0.19, the relative viability (A-427; first compound 0.001 µM) was 0.728 and the relative viability (A-427; first compound 0.01 µM) was 0.731. For the same molecule, the relative viability (A-427; first compound 0.03162 µM) was 0.658, the relative viability (A-427; first compound 0.1 µM) was 0.11 and the relative viability (NCI-H1755; first compound 0.001 µM) was 0.445. The relative viability (NCI-H1755; first compound 0.003162 µM) was 0.466, the relative viability (NCI-H1755; first compound 0.01 µM) was 0.411 and the relative viability (NCI-H1755; first compound 0.03162 µM) was 0.34. For the same molecule, the relative viability (NCI-H1755; first compound 0.1 µM) was 0.261, the relative viability (NCI-H23; first compound 0.001 µM) was 0.411 and the relative viability (NCI-H23; first compound 0.003162 µM) was 0.498. For the same molecule, the relative viability (NCI-H23; first compound 0.01 µM) was 0.546, the relative viability (NCI-H23; first compound 0.03162 µM) was 0.348 and the relative viability (NCI-H23; first compound 0.1 µM) was 0.403. The relative viability (LCLC-103H; first compound 0.001 µM) was 0.649, the relative viability (LCLC-103H; first compound 0.003162 µM) was 0.638 and the relative viability (LCLC-103H; first compound 0.03162 µM) was 0.755. The relative viability (LCLC-103H; first compound 0.1 µM) was 0.421, the relative viability (RERF-LC-KJ; first compound 0.001 µM) was 0.549 and the relative viability (RERF-LC-KJ; first compound 0.003162 µM) was 0.572. It also gave a relative viability (RERF-LC-KJ; first compound 0.01 µM) of 0.533, a relative viability (RERF-LC-KJ; first compound 0.03162 µM) of 0.591 and a relative viability (RERF-LC-KJ; first compound 0.1 µM) of 0.55. The relative viability (NCI-H1915; first compound 0.001 µM) was 0.958, the relative viability (NCI-H1915; first compound 0.003162 µM) was 1.02 and the relative viability (NCI-H1915; first compound 0.01 µM) was 0.903. It also gave a relative viability (NCI-H1915; first compound 0.03162 µM) of 0.993, a relative viability (NCI-H1915; first compound 0.1 µM) of 0.408 and a relative viability (NCI-H2170; first compound 0.001 µM) of 0.283. It also gave a relative viability (NCI-H2170; first compound 0.003162 µM) of 0.306, a relative viability (NCI-H2170; first compound 0.01 µM) of 0.296 and a relative viability (NCI-H2170; first compound 0.03162 µM) of 0.349. It also gave a relative viability (NCI-H2170; first compound 0.1 µM) of 0.299, a relative viability (SW 1573; first compound 0.001 µM) of 0.486 and a relative viability (SW 1573; first compound 0.003162 µM) of 0.652. The relative viability (SW 1573; first compound 0.01 µM) was 0.5, the relative viability (SW 1573; first compound 0.03162 µM) was 0.427 and the relative viability (SW 1573; first compound 0.1 µM) was 0.588. It also gave a relative viability (HCC-366; first compound 0.001 µM) of 0.161, a relative viability (HCC-366; first compound 0.01 µM) of 0.133 and a relative viability (HCC-366; first compound 0.03162 µM) of 0.111. The relative viability (HCC-366; first compound 0.1 µM) was 0.137, the relative viability (NCI-H1792; first compound 0.001 µM) was 0.209 and the relative viability (NCI-H1792; first compound 0.01 µM) was 0.266. The relative viability (SK-LU-1; first compound 0.001 µM) was 0.499, the relative viability (SK-LU-1; first compound 0.003162 µM) was 0.526 and the relative viability (SK-LU-1; first compound 0.01 µM) was 0.563. The relative viability (SK-LU-1; first compound 0.03162 µM) was 0.366, the relative viability (SK-LU-1; first compound 0.1 µM) was 0.499 and the relative viability (HCC-827; first compound 0.001 µM) was 0.685. It also gave a relative viability (HCC-827; first compound 0.003162 µM) of 0.985, a relative viability (HCC-827; first compound 0.01 µM) of 1.15 and a relative viability (HCC-827; first compound 0.03162 µM) of 0.829. The relative viability (HCC-827; first compound 0.1 µM) was 0.965.
